Test results from paper PMC6963971, “Withanolides from Withania aristata as Antikinetoplastid Agents through Induction of Programmed Cell Death” (Pathogens, 2019).
“And” between values parts separate entries of the source, which are not always exact repeats. Identical values can stand only once. Like-named read-outs stand apart in the source and are kept apart here.

Experiments:
T. cruzi epimastigotes = test: Trypanocidal capacity assay (alamarBlue), epimastigotes; type: cell-based, Trypanosoma cruzi; conditions: for SI (CC50/IC50), T. cruzi: epimastigotes vs murine macrophages; for IC50: epimastigote stage, read-out: T. cruzi IC50 (µM ± SD)
Method: (§1) To perform the experiments, promastigotes of L. amazonensis (MHOM/BR/77/LTB0016) and L. donovani (MHOM/IN/90/GE1F8R) and epimastigote T. cruzi (Y strain) were employed. Leishmania species were cultured in Schneider’s medium (Sigma-Aldrich, Madrid, Spain) at 26 °C supplemented with 10% fetal bovine serum (VWR, Biowest, Nuaillé, France) as well as in RPMI 1640 medium (Gibco, Thermo Fisher, Madrid, Spain). Epimastigotes of T. cruzi were cultured in Liver Infusion Tryptose (LIT) medium supplemented with 10% fetal bovine serum at 26 °C. For the cytotoxicity assays, murine macrophage cell line J774A.1 (ATCC TIB-67) was maintained at 37 °C in a 5% CO2 atmosphere in RPMI 1640 medium supplemented with 10% fetal bovine serum.
For the evaluation against the epimastigote stage of T. cruzi, assays were performed following the same procedure mentioned in Section 3.5.1., modifying the density to 2 × 10^5 parasite/well and using LIT medium.

[1] = Cytotoxicity assay (alamarBlue); type: cell-based, murine; conditions: mouse, J774A.1 macrophage cell line; J774A.1, 24 h; read-out: Murine Macrophages CC50
Method: as §1
(§2) The cytotoxicity was evaluated using a macrophage cell line J774A.1 in RPMI medium. Macrophages were plated and at 10^5 macrophages/well and, subsequently, serial dilution of samples were added to the plates. After 24 h of incubation cell viability was determined by the alamarBlue® [28].

[2] = test system: L. amazonensis promastigotes; test: Leishmanicidal activity assay (alamarBlue), promastigotes; type: cell-based, Leishmania amazonensis; conditions: for IC50 / fold more potent than the reference drug against L. amazonensis: promastigote stage; for IC50: read-out: L. amazonensis IC50 (µM ± SD); for fold more potent than the reference drug against L. amazonensis: vs miltefosine; for SI (CC50/IC50), L. amazonensis: promastigotes vs murine macrophages
Method: as §1
(§3) Promastigote in logarithmic phase were used for plate preparation, and the in vitro antiprotozoal assay was performed in 96-well plates. The different fractions or compounds were serially diluted on the wells and 10^6 parasites/mL were finally added. The activity of the fraction was calculated by the alamarBlue® method. In addition, the active pure molecules were tested against the amastigote stage of L. amazonensis.

[3] = test system: L. donovani promastigotes; test: as above; type: cell-based, Leishmania donovani; conditions: for IC50: promastigote stage; for SI (CC50/IC50), L. donovani: promastigotes vs murine macrophages
Method: as §1, §3

L. amazonensis [4] = test: Chromatin condensation determination (Hoechst 33342/propidium iodide); type: cell-based, Leishmania amazonensis; conditions: IC90, 24 h
Method: The detection of condensed chromatin, was performed using the Vybrant™ Apoptosis Assay Kit #5, Hoechst 33342/Propidium Iodide (Invitrogen, Carlsbad, CA, USA). Parasites were incubated with the IC90 of the pure compounds for 24 h, then collected and centrifuged. The cell pellet was resuspended in RPMI, added to a black plate and incubated with the Hoechst 33342 and the propidium iodide. Then the plate was protected from light for 20 min at 4 °C. The EVOS FL Cell Imaging System (Invitrogen, ThermoFisher, Carlsbad, CA, USA) was used to observe the cells, using the DAPI (Hoechst) and RFP (PI) Light Cubes.

T. cruzi = test: Measurement of ATP (Cell Titer-Glo); type: cell-based, Trypanosoma cruzi; conditions: IC90, 24 h
Method: (§4) To determine the ATP level of the parasites, the Cell Titer-Glo® Luminescent Cell Viability Assay (Promega, Madison, WI, USA) was used following the manufacturer’s instructions after incubation of the parasites with the calculated IC90 of the tested withanolides for 24 h.

L. amazonensis [5] = test: Measurement of ATP (Cell Titer-Glo); type: cell-based, Leishmania amazonensis; conditions: IC90, 24 h
Method: as §4

[6] = test system: intracellular amastigote stage of L. amazonensis; test: Amastigote activity assay (parasite rescue and transformation, alamarBlue); type: cell-based, Leishmania amazonensis; conditions: for IC50: intracellular amastigote stage, read-out: L. amazonensis IC50 (µM ± SD); for SI (CC50/IC50), L. amazonensis amastigote: amastigotes vs murine macrophages; for fold more potent than the reference drug against L. amazonensis amastigotes: intracellular amastigote, vs miltefosine
Method: as §3
The amastigote activity was performed according to Jain et al.. After allowing the transformation of rescued amastigotes to promastigotes, the activity was evaluated by AlamarBlue method. After incubation, the fluorescence was measured in a Perkin Elmer EnSpire spectrofluorometer and fluorescence was measured at emission peak 585 nm.

[7] = test system: murine macrophage cell line J774A.1; test: Cytotoxicity assay (alamarBlue); type: cell-based
Method: as §1, §2

Row | Compound | SI (CC50/IC50), T. cruzi (T. cruzi epimastigotes) | CC50 at 24 h [1] | fold more potent than the reference drug against L. amazonensis [2] | SI (CC50/IC50), L. amazonensis [2] | SI (CC50/IC50), L. donovani [3] | fold more potent than benznidazole against T. cruzi epimastigotes (T. cruzi epimastigotes) | IC50 ([6]; Leishmania amazonensis) | SI (CC50/IC50), L. amazonensis amastigote [6] | fold more potent than the reference drug against L. amazonensis amastigotes [6] | also measured
1 | O=C(Cn1ccnc1[N+](=O)[O-])NCc1ccccc1 [Benznidazole] | 57.54 | 104 µg/mL and 400 µM | – | – | – | – | – | – | – | –
2 | CC1=C(CO)C(=O)O[C@@H]([C@@H](C)[C@H]2CC[C@H]3[C@@H]4C[C@H]5O[C@]56[C@@H](O)C=CC(=O)[C@]6(C)[C@H]4CC[C@]23C)C1 [Compound 1, withaferin A] | 11.69 | 11.9 ± 1.08 µM | 7.8 fold | 14.36 | 0.91 | 6.8 fold | 0.055 ± 0.009 µM | 216.73 | 56 fold | IC50 ([2]; Leishmania amazonensis): 0.83 ± 0.07 µM; IC50 ([3]; Leishmania donovani, read-out: L. donovani IC50 (µM ± SD)): 13.2 ± 1.16 µM; propidium iodide staining (L. amazonensis [4]): staining in red was observed; IC50 (T. cruzi epimastigotes; Trypanosoma cruzi): 1.02 ± 0.1 µM; ATP level (T. cruzi): slight decrease; total ATP level (L. amazonensis [5]): strong decrease
3 | CCCCCCCCCCCCCCCCOP(=O)([O-])OCC[N+](C)(C)C [Miltefosine, reference compound] | – | 29.4 µg/mL and 72.2 µM | – | 11.14 | 21.81 | – | 3.12 ± 0.12 µM | 23.13 | – | IC50 ([3]; Leishmania donovani, read-out: L. donovani IC50): 1.35 µg/mL
4 | witharistatin [Compound 3] | – | – | 2.3 fold | – | – | 2.9 fold | – | 58.66 | 14.9 fold | IC50 [2]: 2.82 ± 0.07 µM; IC50 ([3]; read-out: L. donovani IC50 (µM ± SD)): 20.9 ± 1.33 µM; IC50 (T. cruzi epimastigotes): 2.41 ± 0.11 µM; IC50 [6]: 0.209 ± 0.028 µM; CC50 [7]: 12.3 ± 1.16 µM
